“Also recorded” adds a separate entry of the source. Like-named read-outs stand apart in the source and are kept apart here.
How the values were obtained:
[1] = test system: inactine narcosis time; assay: narcosis potentiating effect, inactine narcosis; assay type: in vivo, rats
From the text: (§1) The pharmacological activity of 3-amino-4-ethylthio-quinoline is substantiated by the following tests. As test compound 3-amino-4-ethylthio-quinoline-hydrochloride (referred to further as "Compound A") is used.
(§2) The narcosis potentiating effect of Compound A (on rats) is very strong if inactine is used.

[2] = test system: spasms induced by tetracor; assay: spasmolytic effect on spasms induced by tetracor; assay type: in vivo
From the text: as §1

[3] = test system: rats; assay: conflict test: anxiolytic (punished) and sedative (unpunished) effect on water consumption; assay type: in vivo, Male CFY rats; details: for water uptake, without electric current / water uptake, with electric current: 0.5 hour; for minimal effective dose: Rattus norvegicus, sc, s.c.
Procedure: as §1
Anxiolytic and sedative effects are studied according to the following conflict test. […] On the other hand, sedative effect can be observed but in a dose of 25 mg/kg. Thus the ratio of the anxiolytic and sedative doses amounts to 25,000: 2.5=10,000. The same value of chlordiazepoxide is 10:0.1=100. It appears that in the case of Compound A the dissociation between the sedative and anxiolytic doses is extremely high.
The essential strategy for measuring the anti-anxiety effect of a drug is to check its activity in a conflict situation. We elicit a rewarded response, then suppress that response by punishing it when it occurs and the anti-anxiety effect is measured by the drug-induced increase in punished responding, whereas the sedative effect is measured by the drug-induced decrease of unpunished responding.
A rat, deprived of food for 96 hours and supplied with water ad libitum, drinks about 7 ml water during the 4th day of food deprivation, but needs 35 ml water daily when supplied with dry food [for review see Knoll, J. J., Neural Transm. 59, 163-194 (1984)]. This means that when we circuit the drinking tube and the grid floor of the cage and the rat is regularly shocked by trying to drink, the very hungry animal, which cannot eat without drinking, is maximally forced to overcome the hindrance. This is a sensitive test to check the anti-anxiety effect of a compound.
Male CFY rats, weighing 230-250 g, fed with standard food pellets and supplied with tap water ad libitum, were kept under controlled standard environmental conditions (room temperature between 22°-24° C.) in groups of ten for two weeks until used in the experiment. The rats kept in single cages during starvation were deprived of food for 96 hours and supplied with tap water ad libitum before the experiment.
Another aspect of the selection of the animals for the experiment was their visible physical fitness and normal activity after starvation. Less than 10 percent of the rats were excluded from the experiment because of insufficient physical fitness.
A clear Plexiglass box (39×27×12 cm) with a stainless-steel grid floor supplied with a tray for the food pellets and with a drinking tube was used for the experiment. The grid floor, the drinking tube and an electric stimulator (Grass S48) were connected and electric shocks in this circuit were delivered for 10 s duration with 20 s intervals. The parameters of the current (100V; 25 ohm; 7.5 ms; 5 Hz) were empirically selected using those electric shocks which inhibited the water consumption of the very hungry rats to one third of the control (unpunished) level.
The rats spend one hour in the apparatus after 96 hours of food deprivation. The very hungry rats eat 5-6 g of food pellets during the first hour of the feeding period after the long starvation. […] In the punished situation the consumption was reduced to less than 3 ml.
The drugs were administered parenterally in doses of 0.5 ml/100 g body weight. We refrained from the oral administration of the compounds because of the long term food deprivation.

[4] = acute toxicity (LD50); details: rat, in vivo, rats
From the text: as §1

[5] = "hot-plate" test; assay type: in vivo
From the text: as §1

[6] = test system: rats; assay: algolytic test; assay type: in vivo
From the text: as §1
Compound A is ineffective in the algolytic test (on rats).

[7] = test system: hexobarbital narcosis time; assay: narcosis potentiating effect, hexobarbital narcosis; assay type: in vivo, rats; details: compared with inactine
From the text: as §1, §2

[8] = test system: calypsol narcosis time; assay: narcosis time of non-barbiturate phenyclidine derivative (calypsol); assay type: in vivo, rats
[9] = test system: unconditioned avoidance reflex; assay: modified jumping test; assay type: in vivo; details: 50 and 100 mg p.o.
From the text: as §1

[10] = test system: spontaneous motility; assay: spontaneous motility; assay type: in vivo; details: rats
From the text: as §1

[11] = test system: one-way conditioned avoidance; assay: one-way conditioned avoidance test (screening test I); assay type: in vivo; details: 100 mg/kg p.o.
From the text: as §1

[12] = test system: two-way conditioned avoidance reflex; assay: shuttle box (two-way conditioned avoidance reflex); assay type: in vivo; details: rats, 100 mg/kg p.o.
From the text: as §1

[13] = test system: metabolism; assay: influence on metabolism; assay type: in vivo; details: rats, 100 mg/kg p.o.
From the text: as §1

[14] = test system: benzodiazepine receptors; assay: displacement of diazepame from benzodiazepine receptors; assay type: binding

In the case of `CCSc1c(N)cnc2ccccc12` [3-amino-4-ethylthio-quinoline], the narcosis potentiating effect ([1]; general statement) is reported as “particularly potent anxiolytic and narcosis potentiating effect”, the anticonvulsive effect ([2]; general statement) is reported as “devoid of sedative and anticonvulsive effects” and the anxiolytic effect ([3]; general statement) is reported as “particularly potent anxiolytic; also recorded: highly selective anxiolytic effect”. The sedative effect ([3]; general statement) was “devoid of sedative”.

In the case of `CCSc1c(N)cnc2ccccc12.Cl` [Compound A, 3-amino-4-ethylthio-quinoline-hydrochloride], the LD50 ([4]; sc) is reported as 320 mg/kg, the LD50 ([4]; oral) is reported as 420 mg/kg and the ED50 ([5]; oral) is reported as 49 mg/kg. The ED50 ([5]; sc) was 40 mg/kg, the “activity in the algolytic test” value [6] was “ineffective” and the “ED500 (dose which causes a five-fold prolongation of the inactine narcosis time)” value ([1]; p.o., rats) was 3.4 mg/kg. For the same molecule, the narcosis potentiating effect ([1]; rats, inactine) was “very strong”, the “ED500 (dose which causes a five-fold prolongation of the inactine narcosis time)” value ([1]; s.c., rats) was 3.5 mg/kg and the “prolongation of hexobarbital narcosis time” value [7] was “to a much weaker extent”. The “effect on narcosis time of calypsol” value [8] was “does not lengthen the narcosis time”, the “spasmolytic effect on spasms induced by tetracor” value ([2]; 25 and 100 mg/kg p.o.) was “no spasmolytic effect” and the “inhibition of the unconditioned avoidance reflex” value [9] was “does not inhibit”. For the same molecule, the “inhibition of spontaneous motility” value ([10]; 25 mg/kg) was “inactive”, the “inhibition of spontaneous motility” value ([10]; 50 and 100 mg/kg p.o.) was “moderately in a dose-independant manner” and the “inhibiting effect in one-way conditioned avoidance test” value [11] was “very weak inhibiting effect”. The “inhibition of learning ability” value [12] was “inhibits learning ability on rats significantly”, the influence on metabolism [13] was “does not influence metabolism” and the “water uptake, without electric current” value ([3]; 0.25 mg/kg s.c., 10 animals) was 6.1 ± 0.46 mL. The “water uptake, with electric current” value ([3]; 0.25 mg/kg s.c., 10 animals, p < 0.05) was 3.3 ± 0.45 mL, the “water uptake, without electric current” value ([3]; 5 mg/kg s.c., 10 animals) was 7.2 ± 0.37 mL and the “water uptake, without electric current” value ([3]; 10 mg/kg s.c., 10 animals) was 6.9 ± 0.43 mL. The “water uptake, without electric current” value ([3]; 25 mg/kg s.c., 7 animals, p < 0.01) was 3.4 ± 0.60 mL, the “water uptake, with electric current” value ([3]; 2.5 γ/kg s.c., 10 animals, p < 0.05) was 3.4 ± 0.43 mL and the “water uptake, with electric current” value ([3]; 5 γ/kg s.c., 10 animals, p < 0.001) was 4.1 ± 0.66 mL. The “water uptake, with electric current” value ([3]; 10 γ/kg s.c., 10 animals) was 2.7 ± 0.33 mL, the “water uptake, with electric current” value ([3]; 25 γ/kg s.c., 10 animals) was 2.8 ± 0.38 mL and the minimal effective dose ([3]; with electric current, read-out: dose significantly increasing water consumption punished by trains of electric shock (anxiolytic dose)) was 0.0025 mg/kg. For the same molecule, the minimal effective dose ([3]; without electric current, read-out: dose at which sedative effect can be observed) was 25 mg/kg, the anxiolytic effect ([3]; general statement) was “extremely active anxiolytic agent” and the “ratio of the anxiolytic and sedative doses” value [3] was 10,000. For the same molecule, the “displacement of diazepame from the benzodiazepine receptors” value [14] was “displaces diazepame from the benzodiazepine receptors”.

For `CNC1=Nc2ccc(Cl)cc2C(c2ccccc2)=[N+]([O-])C1` [chlordiazepoxide, reference compound], the “ratio of the anxiolytic and sedative doses” value [3] was 100.
